According to US7932277B2, “Peptide inhibitors of hepatitis C virus replication” (InterMune, Inc., priority 2007, dated 2011):

Legend:
[1] = biological target: T1, NS3/NS4A-2 (full-length HCV NS3 protease complexed with NS4A-2) (Hepatitis C virus genotype 1a, UniProt P27958); assay: NS3 inhibition assay (NS3-NS4 protease assay); assay type: biochemical; conditions: recombinant full-length NS3/NS4A-2, RETS1 substrate, kinetic fluorescence read; read-out: NS3-NS4 IC50
T1 construct: Recombinant E. coli or Baculovirus full-length NS3; host or cells: E. coli or baculovirus (insect cells)
Experimental: Recombinant E. coli or Baculovirus full-length NS3 was diluted to 3.33 μM with assay buffer and transferred material to an eppendorf tube and place in water bath in 4° C. refrigerator. The appropriate amount of NS4A-2 to 8.3 mM in assay buffer was added to equal the volume of NS3 in step 2.1.1 (conversion factor −3.8 mg/272 μL assay buffer). The material was transferred to an eppendorf tube and place in water bath in 4° C. refrigerator.
After equilibration to 4° C., equal volumes of NS3 and NS4A-2 solutions were combined in an eppendorf tube, mix gently with a manual pipettor, and incubate mixture for 15 minutes in the 4° C. water bath. Final concentrations in the mixture are 1.67 μM NS3, 4.15 mM NS4A-2 (2485-fold molar excess NS4A-2).
After 15 minutes at 4° C., the NS3/NS4A-2 eppendorf tube was removed and place it in a room temperature water bath for 10 minutes. NS3/NS4A-2 was aliquoted at appropriate volumes and store at −80° C. (E. coli NS3 run at 2 nM in assay, aliquot at 25 μL. BV NS3 run at 3 nM in assay, aliquot at 30 μL).
Sample compounds were dissolved to 10 mM in DMSO then diluted to 2.5 mM (1:4) in DMSO. Typically, compounds were added to an assay plate at 2.5 mM concentration, yielding upon dilution a starting concentration of 50 microM in the assay inhibition curve. Compounds were serial diluted in assay buffer to provide test solutions at lower concentrations.
The E. coli. NS3/NS4A-2 was diluted to 4 nM NS3 (1:417.5 of 1.67 μM stock−18 μL1.67 μM stock+7497 μL assay buffer). The BV NS3/NS4A-2 was diluted to 6 nM NS3 (1:278.3 of 1.67 μM stock−24 μL1.67 μM stock+6655 μL assay buffer). Using the manual multichannel pipettor, careful not to introduce bubbles into the plate, add 50 μL assay buffer to wells A01-H01 of a black Costar 96-well polypropylene storage plate.
Using the manual multichannel pipettor, careful not to introduce bubbles into the plate, add 50 μL of diluted NS3/NS4A-2 from step 2.2.6 to wells A02-H12 of plate in step 2.2.7. Using the manual multichannel pipettor, careful not to introduce bubbles into the plate, transfer 25 μL of the wells in drug dilution plate in step 2.2.5 to corresponding wells in assay plate in step 2.2.8. Change tips on multichannel pipettor for each row of compounds transferred. Using the manual multichannel pipettor, careful not to introduce bubbles into the plate, mix the wells from the assay plate in step 2.2.9 by aspirating and dispensing 35 μL of the 75 μL in each well five times. Change tips on multichannel pipettor for each row of wells mixed. Cover plate with a polystyrene plate lid and pre-incubate the plate from step 2.2.10 containing NS3 protease and sample compounds 10 minutes at room temperature. While plate from step 2.2.11 is pre-incubating, dilute RETS1 substrate in a 15 mL polypropylene centrifuge tube. Dilute RETS1 substrate to 8 μM (1:80.75 of 646 μM stock−65 μL 646 μM stock+5184 μL assay buffer).
After the plate in step is done pre-incubating, and using the manual multichannel, add 25 μL of substrate to all wells on the plate. Quickly mix the plate as in step 2.2.10, mixing 65 μL of the 100 μL in the wells.
Read the plate in kinetic mode on the Molecular Devices SpectraMax Gemini XS plate reader. Reader settings: Read time: 30 minutes, Interval: 36 seconds, Reads: 51, Excitation λ: 335 nm, Emission λ: 495 nm, cutoff: 475 nm, Automix: off, Calibrate: once, PMT: high, Reads/well: 6, Vmax pts: 21 or 28/51 depending on length of linearity of reaction
IC50s are determined using a four parameter curve fit equation, and converted to Ki's using the following Km's: • Full-length E. coli NS3−2.03 μM • Full-length BV NS3−1.74 μM • where Ki=IC50/(1+[S]/Km)) • Quantitation by ELISA of the Selectable Marker Protein, Neomycin Phosphotransferase II (NPTII) in the HCV Sub-Genomic Replicon, GS4.3

[2] = test system: HCV sub-genomic replicon (1377/NS3-3') in HuH-7 hepatoma cells (GS4.3); assay: Quantitation by ELISA of NPTII in the HCV sub-genomic replicon, GS4.3; assay type: cell-based, hepatitis C virus (HCV); conditions: Hepatitis C virus, Huh-7; GS4.3 cells, 72 h incubation, NPTII ELISA; read-out: Replicon EC50
Experimental: The HCV sub-genomic replicon (1377/NS3-3′, accession No. AJ242652), stably maintained in HuH-7 hepatoma cells, was created by Lohmann et al. Science 285: 110-113 (1999). The replicon-containing cell culture, designated GS4.3, was obtained from Dr. Christoph Seeger of the Institute for Cancer Research, Fox Chase Cancer Center, Philadelphia, Pa.
GS4.3 cells were maintained at 37° C., 5% CO2, in DMEM (Gibco 11965-092) supplemented with L-glutamine 200 mM (100×) (Gibco25030-081), non-essential amino acids (NEAA) (Biowhittaker 13-114E), heat-inactivated (HI) Fetal Bovine Serum (FBS) (Hyclone SH3007.03) and 750 μg/mL geneticin (G418)(Gibco 10131-035). Cells were sub-divided 1:3 or 4 every 2-3 days.
24 h prior to the assay, GS4.3 cells were collected, counted, and plated in 96-well plates (Costar 3585) at 7500 cells/well in 100 μL standard maintenance medium (above) and incubated in the conditions above. To initiate the assay, culture medium was removed, cells were washed once with PBS (Gibco 10010-023) and 90 μl Assay Medium (DMEM, L-glutamine, NEAA, 10% HI FBS, no G418) was added. Inhibitors were made as a 10× stock in Assay Medium, (3-fold dilutions from 10 μM to 56 pM final concentration, final DMSO concentration 1%), 10 μL were added to duplicate wells, plates were rocked to mix, and incubated as above for 72 h.
An NPTII Elisa kit was obtained from AGDIA, Inc. (Compound direct ELISA test system for Neomycin Phosphotransferase II, PSP 73000/4800). Manufacturer's instructions were followed, with some modifications. 10×PEB-1 lysis buffer was made up to include 500 μM PMSF (Sigma P7626, 50 mM stock in isopropanol). After 72 h incubation, cells were washed once with PBS and 150 μL PEB-1 with PMSF was added per well. Plates were agitated vigorously for 15 minutes, room temperature, then frozen at −70° C. Plates were thawed, lysates were mixed thoroughly, and 100 μl were applied to an NPTII Elisa plate. A standard curve was made. Lysate from DMSO-treated control cells was pooled, serially diluted with PEB-1 with PMSF, and applied to duplicate wells of the ELISA plate, in a range of initial lysate amount of 150 μL-2.5 μL. In addition, 100 μL buffer alone was applied in duplicate as a blank. Plates were sealed and gently agitated at room temperature for 2 h. Following capture incubation, the plates were washed 5×300 μL with PBS-T (0.5% Tween-20, PBS-T was supplied in the ELISA kit). For detection, a 1× dilution of enzyme conjugate diluent MRS-2 (5×) was made in PBS-T, into which 1:100 dilutions of enzyme conjugates A and B were added, as per instructions. Plates were resealed, and incubated with agitation, covered, room temperature, for 2 h. The washing was then repeated and 100 μL of room temperature TMB substrate was added. After approximately 30 minutes incubation (room temperature, agitation, covered), the reaction was stopped with 50 μL 3M sulfuric acid. Plates were read at 450 nm on a Molecular Devices Versamax plate reader.
Inhibitor effect was expressed as a percentage of DMSO-treated control signal, and inhibition curves were calculated using a 4-parameter equation: y=A+((B−A)/(1+((C/x)^D))), where C is half-maximal activity or EC50.

T1 sequence (P27958 1027-1657, one chain of several): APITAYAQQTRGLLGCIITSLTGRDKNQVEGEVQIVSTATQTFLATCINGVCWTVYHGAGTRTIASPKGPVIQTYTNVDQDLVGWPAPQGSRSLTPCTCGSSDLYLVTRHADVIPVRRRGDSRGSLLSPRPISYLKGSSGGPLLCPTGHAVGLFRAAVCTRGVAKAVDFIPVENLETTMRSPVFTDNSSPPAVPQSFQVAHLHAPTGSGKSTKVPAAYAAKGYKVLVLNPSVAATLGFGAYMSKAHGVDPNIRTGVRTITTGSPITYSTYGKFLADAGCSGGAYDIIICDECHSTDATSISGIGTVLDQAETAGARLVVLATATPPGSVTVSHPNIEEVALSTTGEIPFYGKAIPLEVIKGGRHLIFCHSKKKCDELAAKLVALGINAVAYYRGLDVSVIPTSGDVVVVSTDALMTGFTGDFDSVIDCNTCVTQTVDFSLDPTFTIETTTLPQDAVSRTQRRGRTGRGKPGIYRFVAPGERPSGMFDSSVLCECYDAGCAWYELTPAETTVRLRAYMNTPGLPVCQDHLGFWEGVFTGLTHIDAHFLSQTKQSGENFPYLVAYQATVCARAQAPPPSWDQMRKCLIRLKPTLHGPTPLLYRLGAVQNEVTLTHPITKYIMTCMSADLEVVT

Row | Compound | IC50 [1] [nM] | EC50 [2] [nM]
1 | CC[C@@H]1C[C@]1(NC(=O)[C@@H]1C[C@@H](OC(=O)N2Cc3cccc(Cl)c3C2)CN1C(=O)[C@@H](Nc1cncc(C(F)(F)F)c1)C(C)(C)C)C(=O)NS(=O)(=O)C1CC1 [Compound 58, [(3R,5S)-5-((1R,2R)-1-(cyclopropylsulfonylcarbamoyl)-2-ethylcyclopropylcarbamoyl)-1-((S)-3,3-dimethyl-2-(5-(trifluoromethyl)pyridin-3-ylamino)butanoyl)pyrrolidin-3-yl]4-chloroisoindoline-2-carboxylate] | < 100 | < 100
2 | CC[C@@H]1C[C@]1(NC(=O)[C@@H]1C[C@@H](OC(=O)N2Cc3cccc(Cl)c3C2)CN1C(=O)[C@@H](Nc1cccc(C(C)(C)C)c1)C(C)C)C(=O)NS(=O)(=O)C1CC1 [Compound 46, [(3R,5S)-1-((S)-2-(3-tert-butylphenylamino)-3-methylbutanoyl)-5-((1R,2R)-1-(cyclopropylsulfonylcarbamoyl)-2-ethylcyclopropylcarbamoyl)pyrrolidin-3-yl]4-chloroisoindoline-2-carboxylate] | < 100 | < 100
3 | CC[C@@H]1C[C@]1(NC(=O)[C@@H]1C[C@@H](OC(=O)N2Cc3cccc(Cl)c3C2)CN1C(=O)[C@@H](Nc1cccc(Oc2ccccc2)c1)C(C)(C)C)C(=O)NS(=O)(=O)C1CC1 [Compound 76] | < 100 | < 100
4 | C=C[C@@H]1C[C@]1(NC(=O)[C@@H]1C[C@@H](OC(=O)N2Cc3cccc(F)c3C2)CN1C(=O)[C@@H](Nc1ccc(F)nc1)C(C)C)C(=O)NS(=O)(=O)C1CC1 [Compound 39, [(3R,5S)-5-((1R,2S)-1-(cyclopropylsulfonylcarbamoyl)-2-vinylcyclopropylcarbamoyl)-1-((S)-2-(6-fluoropyridin-3-ylamino)-3-methylbutanoyl)pyrrolidin-3-yl]4-fluoroisoindoline-2-carboxylate] | < 100 | 100 to 1000
5 | C=C[C@@H]1C[C@]1(NC(=O)[C@@H]1C[C@@H](OC(=O)N2Cc3cccc(F)c3C2)CN1C(=O)[C@@H](Nc1ccc(C(C)(C)C)cc1)C(C)C)C(=O)NS(=O)(=O)C1CC1 [Compound 38, [(3R,5S)-1-((S)-2-(4-tert-butylphenylamino)-3-methylbutanoyl)-5-((1R,2S)-1-(cyclopropylsulfonylcarbamoyl)-2-vinylcyclopropylcarbamoyl)pyrrolidin-3-yl]4-fluoroisoindoline-2-carboxylate] | < 100 | 100 to 1000
6 | CC[C@@H]1C[C@]1(NC(=O)[C@@H]1C[C@@H](OC(=O)N2Cc3cccc(F)c3C2)CN1C(=O)[C@@H](Nc1cccc(C)c1)C(C)C)C(=O)NS(=O)(=O)C1CC1 [Compound 49, [(3R,5S)-5-((1R,2R)-1-(cyclopropylsulfonylcarbamoyl)-2-ethylcyclopropylcarbamoyl)-1-((S)-3-methyl-2-(m-tolylamino)butanoyl)pyrrolidin-3-yl]4-fluoroisoindoline-2-carboxylate] | < 100 | 100 to 1000
7 | C=C[C@@H]1C[C@]1(NC(=O)[C@@H]1C[C@@H](OC(=O)N2Cc3cccc(F)c3C2)CN1C(=O)[C@@H](Nc1cccc(C(F)(F)F)c1)C(C)(C)C)C(=O)NS(=O)(=O)C1CC1 [Compound 43, [(3R,5S)-5-((1R,2S)-1-(cyclopropylsulfonylcarbamoyl)-2-vinylcyclopropylcarbamoyl)-1-((S)-3,3-dimethyl-2-(3-(trifluoromethyl)phenylamino)butanoyl)pyrrolidin-3-yl]4-fluoroisoindoline-2-carboxylate] | < 100 | < 100
8 | C=C[C@@H]1C[C@]1(NC(=O)[C@@H]1C[C@@H](OC(=O)N2Cc3cccc(Cl)c3C2)CN1C(=O)[C@@H](Nc1nc(C(F)(F)F)cs1)C1CCCCC1)C(=O)NS(=O)(=O)C1CC1 [Compound 63, [(3R,5S)-5-(((1R,2S)-1-(Cyclopropylsulfonylcarbamoyl)-2-vinylcyclopropyl)carbamoyl)-1-((S)-2-cyclohexyl-2-(4-(trifluoromethyl)thiazol-2-ylamino)acetyl)pyrrolidin-3-yl]4-chloroisoindoline-2-carboxylate] | < 100 | < 100
